Experimental data reported in US11850266B2, “Cardiomyocytes and compositions and methods for producing the same” (President and Fellows of Harvard College, priority 2019, dated 2023).

Columns and labels:
Format in all cases: cell-based, human
[1] = tested on: iPSC-derived cardiomyocytes; assay: Mitochondrial DNA to nuclear DNA ratio, MitoTracker and MitoProbe JC-1 assays
Procedure: The mitochondrial DNA to nuclear DNA ratio was quantified with qPCR. DNA was extracted from cardiomyocytes using the PureLink genomic DNA mini kit (Invitrogen). Primers for DNA to mitochondrial gene NADH dehydrogenase 1 (ND1) and nuclear gene lipoprotein lipase gene (LPL) were used (10).
Live iPSC-derived cardiomyocytes were stained using MitoTracker Green FM (Invitrogen) or the MitoProbe JC-1 assay kit (Invitrogen) according to the manufacturer's instructions. Cells were evaluated by flow cytometry and mean fluorescence intensity (MFI) of all live cells was quantified. For JC-1, the ratio of red to green MFI for vehicle versus Torin1-treated cells was quantified and normalized to control.

[2] = tested on: iPSC-derived cardiomyocytes; assay: Calcium transients (Fluo-4 AM) analysis with Vala Kinetic Image Cytometer; details: Torin1 treatment, FIG. 14
Procedure: To perform calcium transients analysis, 50 ul of 10 ug/ml Hoeschst 33258 and 5 μM Fluo-4 AM was added to each well of a 96 well plate and incubated for 10 minutes at 37 degrees. Media was replaced with RPMI without phenol red supplemented with 1:100 Oxyfluor and 10 uM sodium lactate. Isoproterenol (1 μM) was added to the media for isoproterenol experiments. Pacing protocol was 5 seconds delay without pacing followed by 5 seconds pacing at 1 Hz and 5 seconds imaging without pacing. Imaging was performed using the Vala Kinetic Image Cytometer at 30 fps with 33.30 ms exposure at 14.25 intensity. Stimulation pulse was 5 ms with 15V voltage. Data was collected by CyteSeer analysis program.

[3] = tested on: iPSC-derived cardiomyocytes; assay: Seahorse Mito Stress Test and Glycolysis Stress Test
Procedure: The Seahorse XFe96 Analyzer (Agilent) was used to assess metabolic activity of differentiated cardiomyocytes. Seahorse XFe96 cell culture microplates were coated with Geltrex (1:100 dilution in DMEM:F12). Cardiomyocytes were differentiated as described above then treated with DMSO or Torin1 (200 nM) starting at approximately two days after onset of beating for one week (˜days 9-16 of differentiation for most batches). After treatment, all cells were changed back into RPMI/B27/insulin media until assay preparation (performed at or before day 35 of differentiation). One day prior to assay, cardiomyocytes were dissociated with 0.1% trypsin-EDTA for 5 minutes then neutralized with RPMI/B27/insulin+10% fetal bovine serum (FBS) and plated at a density of 20,000-30,000 cells per well. Cardiomyocytes were maintained in serum-containing medium overnight to facilitate cell adhesion. One hour prior to the assay, the plates were changed to Seahorse assay media (XF Base Medium supplemented with 25 mM glucose, 1 mM sodium pyruvate, and 1 mM GlutaMAX), then incubated at 37 degrees C. in a CO2-free incubator with Seahorse assay media. […] Following measurement of the oxygen consumption rate (OCR) and extracellular acidification rate (ECAR) in response to serial injections of the stress test kit compounds, final cell density was determined using a CyQUANT assay (Thermo Fisher Scientific) to account for cell loss during washes. Cardiomyocytes not used for the Seahorse assay but at a similar day of differentiation were used to create a standard curve for the CyQUANT assay to quantify absolute cell number in order to account for cell loss during washing/mixing steps. OCR values were normalized to absolute cell number determined by the CyQUANT assay. […] Baseline OCR values were calculated by averaging the first three OCR measurements (0-12 minutes) prior to injection of compounds, maximal OCR values were calculated by subtracting the average non-mitochondrial OCR values (OCR following rotenone/[…]) from the OCR values after the injection with the uncoupler FCCP, and respiratory reserve capacity values were calculated by subtracting baseline OCR values from OCR values after addition of FCCP. For the Glycolysis Stress Test, the glycolysis ECAR was calculated by subtracting the average non-glycolytic acidification values (after 2-DG) from the values after glucose administration, the glycolytic capacity was calculated by subtracting the non-glycolytic acidification ECAR values from ECAR values after addition of oligomycin, and the glycolytic reserve was calculated by subtracting the ECAR values after addition of glucose from the ECAR values after addition of oligomycin, according to the manufacturer's instructions.

[4] = tested on: iPSC-derived cardiomyocytes; assay: Voltage (FluoVolt) analysis with Vala Kinetic Image Cytometer
Procedure: Following completion of Torin1 treatment, cardiomyocytes were dissociated as described above then replated at a density of 20,000-30,000 cells per well in a Geltrex-coated Greiner Cellstar black 96 well plate. FluoVolt dye (1:1000 from stock in the FluoVolt Membrane Potential Kit, Thermo) and Hoechst 33258 stain (20 μg/ml) in RPMI1640 (no phenol red) (supplemented with OxyFluor (Oxyrase, 1:100 dilution), 10 mM sodium lactate) were added to each well 15 minutes prior to assay. Cells were electrically stimulated with 15 V at a frequency of 0.5 pulses/sec and a pulse width of 5 msec for 5 pulses using the IC200 Kinetic Image Cytometer (Vala). Images were acquired at 20× and at a frame rate of 70 frames per second. Voltage analysis was performed using the CyteSeer image analysis software, which automatically recognizes Hoechst-stained nuclei, segments, and identifies each cell to quantify voltage data for each cell captured in the field of view (34). Cells were identified by Hoechst-stained nuclei, segmented into individual cells and automatically numbered by CyteSeer software (FIG. 4C). Within each cell, fluorescence intensity was recorded from within a circular region within each numbered, nucleated cell. […] Data from approximately 300-500 individual cells were included for analysis for each condition. Baseline fluorescence was used to normalize for variability in fluorescence intensity between individual cells. The peak rise time, CTD25 (25% duration of the calcium transient, or duration at 25% decline from maximum amplitude), CTD75 (75% duration of the calcium transient, or duration at 75% decline from maximum amplitude), T75-25 (time for voltage to decay from 75% to 25% of maximum), and downstroke velocity were quantified using the CyteSeer image analysis software.

[5] = Torin1 200 nM 7 days, BJRiPS-CMs

## CCC(=O)N1CCN(c2ccc(-n3c(=O)ccc4cnc5ccc(-c6cnc7ccccc7c6)cc5c43)cc2C(F)(F)F)CC1 [Torin1]
[1]; [5]
  MFI of MitoTracker by flow cytometry: decreased MFI
  mitochondrial to nuclear DNA ratio: decreased
[1]; Torin1 1 week, FIG. 3E
  mitochondrial membrane polarization (MitoProbe JC-1 red:green ratio): significant increase in mitochondrial membrane polarization
[2]
  calcium peak rise time, peak decay time and FWHM time: significant decreases
[3]; Torin1 200 nM 7 days, BJRiPS-CMs, FIG. 3B
  normalized maximal OCR: significant increase
[3]; Torin1 200 nM 7 days, FIG. 12C
  ECAR from non-glycolytic acidification: decrease in ECAR from non-glycolytic acidification
[3]; Torin1 200 nM 7 days, FIGS. 12A-12B
  extracellular acidification rate (ECAR): trend toward decreased
[3]; Torin1 7 days, Gibco iPSC-derived cardiomyocytes
  maximal OCR: significantly increases the maximal OCR
[4]; FluoVolt, FIG. 4E
  action potential profile: longer plateau phase and a sharper upstroke and downstroke
[4]; UCSD-CMs, FIG. 4F
  action potential peak rise time: significant decrease
[4]; UCSD-CMs, FIG. 4G
  downstroke velocity: significant increase
[4]; UCSD-CMs, FIG. 4H
  CTD25: no changes
[4]; UCSD-CMs, FIG. 4I
  CTD75: significant decrease
[4]; UCSD-CMs, FIG. 4J
  T75-25 time: significant decrease
